{"source": "patent US20130164336A1", "about": "“ANTIMICROBIAL AND ANTI-INFLAMMATORY ACTION PHARMACEUTICAL COMPOSITION FOR PARENTERAL ADMINISTRATION AND ITS PRODUCTION PROCESS” (priority 2010, published 2013)", "assay_type_in_all_cases": "in vivo", "key": {"[1]": {"test_system": "Staphylococcus aureus (ATCC No 25923 F-49)", "experiment": "Experimental sepsis model in mice, survival on the 7th day", "settings": "S. aureus 10^10 CFU/mouse", "excerpt": "(§1) To determine therapeutic efficiency of fosfamicin and their pharmaceutical compositions including BHSiO2, we used experimental sepsis models and a statistical processing methos of the received data (χ^2) according to [29, 30].\n(§2) Microorganisms: Staphylococcus aureus (ATCC No 25923 F-49), Escherichia coli (ATCC No 25922 F-50), Pseudomonas aeruginosa (ATCC N227853 F-51).\n(§3) Animals: for the experiments we used hybrid mice (CBA×C57Black/6)CBF1 according to the “Regulations for test animals use” (USSR Ministry of health order supplement No 755 from 12.08. 1977).\n(§4) The mice have been injected 0.8 ml of Pseudomonas aeruginosa daily culture suspension with a dosage 5×10^8 CFU/mouse or Staphylococcus aureus daily culture suspension with a dosage 10^10 CFU/mouse or Escherichia coli daily culture suspension with a dosage 8×10^8 CFU/mouse. The control group has been injected with 0.8 ml of normal saline solution (0.9% sodium chloride solution). In a day after being infected the test mice have been daily (during 3 days) intravenous injected with 100 mg/kg of antibiotics or different pharmaceutical compositions (antibiotic/BHSiO2) watered down with 0.25 ml of normal saline solution. The control group of mice has been injected using the same scheme with normal saline solution 0.25 mg.\n(§5) Antimicrobial therapy efficiency has been estimated basing on the q-ty of the living mice on the 7th day of the experiment.\n(§6) The obtained data stated in Table No 2 reflect the results of 3 independent experiments conducted for each test group."}, "[2]": {"test_system": "Pseudomonas aeruginosa (ATCC N227853 F-51)", "experiment": "Experimental sepsis model in mice, survival on the 7th day", "settings": "P. aeruginosa 5×10^8 CFU/mouse", "excerpt": "as §1, §2, §3, §4, §5, §6"}, "[3]": {"test_system": "Escherichia coli (ATCC No 25922 F-50)", "experiment": "Experimental sepsis model in mice, survival on the 7th day", "settings": "E. coli 8×10^8 CFU/mouse", "excerpt": "as §1, §2, §3, §4, §5, §6"}, "Staphylococcus aureus": {"test_system": "Staphylococcus aureus", "experiment": "Anti-inflammatory action: peripheral blood leukocytes of mice surviving to day 7 after sepsis induction", "settings": "mice infected with Staphylococcus aureus surviving to day 7, median, low and high quartiles", "experimental": "as §4, with “The control group has been injected with 0.8 ml of normal saline solution (0.9% sodium chloride solution).” left out, “solution.” for “solution. The control group of mice has been injected using the same scheme with normal saline solution 0.25 mg.”\n(§7) It is known that in case of sepsis the quantity of peripheral blood leucocytes can determine the activity of the inflammatory process.\n(§8) We have studied the leukocytes quantity of the mice that have survived until the day 7 after sepsis induction, according to the method described above."}, "Pseudomonas aeruginosa": {"test_system": "Pseudomonas aeruginosa", "experiment": "Anti-inflammatory action: peripheral blood leukocytes of mice surviving to day 7 after sepsis induction", "settings": "mice infected with Pseudomonas aeruginosa surviving to day 7, median, low and high quartiles", "experimental": "as §4, with “The control group has been injected with 0.8 ml of normal saline solution (0.9% sodium chloride solution).” left out, “solution.” for “solution. The control group of mice has been injected using the same scheme with normal saline solution 0.25 mg.”\nas §7, §8"}, "[4]": {"settings": "100 mg/kg intravenous daily for 3 days"}, "[5]": {"settings": "100 mg/kg intravenous daily for 3 days from a day after infection"}}, "data": [{"smiles": "C[C@@H]1O[C@@H]1P(=O)(O)O", "note": "[Fosfomycin, fosfomycin]", "values": [{"measurement": "Mice survival on the 7th day, survived/infected animals (absolute values)", "setting": "[1]; [4]", "result": "(12/30)"}, {"measurement": "Mice survival rate on the 7th day of infection", "setting": "[1]; [5]", "result": 40, "unit": "%"}, {"measurement": "Mice survival on the 7th day, survived/infected animals (absolute values)", "setting": "[2]; [4]", "result": "(10/31)"}, {"measurement": "Mice survival rate on the 7th day of infection", "setting": "[2]; [5]", "result": 32.2, "unit": "%"}, {"measurement": "Mice survival on the 7th day, survived/infected animals (absolute values)", "setting": "[3]; [4]", "result": "(14/30)"}, {"measurement": "Mice survival rate on the 7th day of infection", "setting": "[3]; [5]", "result": 46.6, "unit": "%"}, {"measurement": "Leukocytes quantity Me(LQ-HQ)", "setting": "Staphylococcus aureus", "result": "17.38 (15.5-21.5) × 10^9/l"}, {"measurement": "Leukocytes quantity Me(LQ-HQ)", "setting": "Pseudomonas aeruginosa", "result": "17.13 (16.0-18.63) × 10^9/l"}]}]}
